Experimental data published in patent US20110201665A1, “Compositions, Methods, and Kits for Treating Influenza Viral Infections” (priority 2009, published 2011).

Legend:
[1] = tested on: Influenza A/NWS/33 (H1N1); design: species or system C57/BL6 mice; conditions: mouse, in vivo; for survival on day 8: po
[2] = in vivo, po; cited from earlier work
[3] = design: dose or concentration left out as unconfirmed; conditions: Phase I, single or multiple oral doses; cited from earlier work
influenza A or B viruses = conditions: human, in vivo, po; cited from earlier work

## CC(C)C(=O)c1c(C(C)C)nn2ccccc12 [ibudilast, 1-(2-isopropyl-pyrazolo[1,5-a]pyridine-3-yl)-2-methylpropan-1-one]
[1]
  survival on day 8: 0%

## CCOC(=O)C1=C[C@@H](OC(CC)CC)[C@H](NC(C)=O)[C@@H](N)C1 [oseltamivir, (3R,4R,5S)-4-acetylamino-5-amino-3(1-ethylpropoxy)-1-cyclohexene-1-carboxylic acid, ethyl ester]
[2]
  half-life: 6 to 10 h
[1]
  survival rate: 40%

## CCC(CC)[C@H](NC(C)=O)[C@@H]1[C@H](O)[C@@H](C(=O)O)C[C@H]1NC(=N)N [peramivir, (1S,2S,3S,4R)-3-[(1S)-1-Acetamido-2-ethyl-butyl]-4-(diaminomethylideneamino)-2-hydroxy-cyclopentane-1-carboxylic acid]
[3]
  tolerability: well-tolerated
Influenza A or B viruses
  adverse effects: no adverse effects

## O=C(Nc1c(Cl)cncc1Cl)c1ccc(OC(F)F)c(OCC2CC2)c1 [roflumilast, 3-(cyclopropylmethoxy)-N-(3,5-dichloropyridin-4-yl)-4-(difluoromethoxy)benzamide]
[1]
  survival on day 8: 0%

## COc1ccc(C2CNC(=O)C2)cc1OC1CCCC1 (stereo not shown) [rolipram, 4-[3-(cyclopentyloxy)-4-methoxyphenyl]-2-pyrrolidone]
[1]
  survival on day 8: 0%
